Results: article PMC11451635, “A Broad Spectrum Lasso Peptide Antibiotic Targeting the Bacterial Ribosome” (Research Square, 2024)
pIC50: −log10 of the molar value. Converted amounts (≈) assume the structure as drawn. “Also recorded” adds a separate entry of the source. Like-named read-outs stand apart in the source and are kept apart here. Where a SMILES comes first, the peptide text is derived from it. Bridges are numbered along the chain shown (N, C = ends).

How the values were obtained:
[1] = system: T. thermophilus 70S ribosome; assay: X-ray structure of ribosome complex; type: binding, Thermus thermophilus
[2] = system: Candida albicans ATCC 90028
E. coli ribosome = assay: Translocation inhibition assay; type: biochemical, Escherichia coli; conditions: 62.5 μM LAR or 250 μM negamycin, EF-G/GTP, primer extension
[3] = system: strains with odilorhabdin-resistance mutations; assay: MIC in odilorhabdin-resistance mutants; type: cell-based; conditions: three of 10 known odilorhabdin-resistance mutations
Method: (§1) MICs were determined using broth microdilution method in cation-adjusted Mueller-Hinton Broth (MHBII, BD Difco) following standard procedures unless stated otherwise. Mycobacteria susceptibility was tested in Middlebrook 7H9 medium supplemented with 10% OADC Enrichment (oleic acid, bovine albumin, dextrose, and catalase) (BD Difco). The compounds (2 to 4 μl) were mixed with diluted cultures (5–7 × 10^5 cfu/mL) in MHB (196 to 198 μL) in 96-well round-bottom plates, and 2-fold serial dilutions were made. Plates were incubated at 37°C for 18–22 h, and OD600 readings were taken on Synergy Microplate Reader (Biotek). MIC was determined to be the lowest concentration of antibiotics with no visible growth. For Mycobacterial cultures, the plates were read after two to three days. Susceptibility was also assessed in MOPS minimal medium with 0.4% glucose (M2106 Teknova) and RPMI-1640 medium. Serum effects were tested in MHB with 10% or 50% fetal bovine serum (Invitrogen) or human serum (Heat Inactivated, from human male AB plasma; Sigma-Aldrich). For anaerobic conditions, E. coli was incubated in BD GasPak™ EZ pouch systems. To adjust the pH of the media, 1M NaOH or 1N HCl was used.

bacteria (Table 1) = assay: MIC in nutrient-limited media; type: cell-based; conditions: nutrient-limited media vs MHB
Method: as §1

E. coli BW25113 membrane = assay: Propidium iodide uptake assay; type: cell-based, Escherichia coli; conditions: propidium iodide 4 μM, 30 min, RT, fluorescence
Method: E. coli BW25113 cells were prepared as described above and mixed with propidium iodide (final concentration 4 μM). Cell suspension (190 μL) was then placed into wells of a 96-well black-wall plate and supplemented with 10 μL of compounds at various concentrations. Fluorescence (lex/lem: 535/617 nm) was monitored for 30 min at RT in a Synergy Microplate Reader (Biotek). Colistin was used as a positive control.

[4] = system: rabbit reticulocyte lysate (luc mRNA); assay: In vitro translation in rabbit reticulocyte lysate; type: biochemical
Method: The effect of LAR on eukaryotic translation was assessed using Rabbit Reticulocyte Lysate System (L4960, Promega) programmed with firefly luciferase mRNA. In vitro reactions were assembled according to the manufacturer’s protocol in a nal volume of 10 μL supplemented with 0.02–50 μM of LAR or no antibiotic and incubated for 90 min at 30°C. After that, 2.5 μL from each reaction was mixed with 50 μl of prewarmed luciferase assay reagent, and the luminescence was measured in Infinite M200 PRO plate reader (TECAN) for 10 min at 25°C. The assay was performed in triplicate.

E. coli BW25113 = assay: Time-dependent killing; type: cell-based, Escherichia coli; conditions: 10xMIC (40 μg/ml), MOPS minimal medium, 37°C
Method: E. coli BW25113 was grown overnight in 5 ml MOPS minimal medium and diluted 1:100 in 3 ml of fresh medium in 14 ml culture tubes. Cells were grown for three to four hours to reach mid-exponential phase (OD600 0.4–0.6) and treated with 10xMIC of LAR (40 μg/ml) or colistin (2.5 to 5 μg/ml) in 1 ml culture at 37°C with agitation at 250 rpm. Cultures were sampled at various times, centrifuged at 10,000 xg for 3 min, and plated on MHA plates. The number of colony forming units (cfu) was determined after incubating plates for 20–24 hr at 37°C. A time-kill assay against A. baumannii C0286 was performed in MHB. For cell lysis assay, cultures were prepared as described above. Initial OD600 was adjusted to 0.15–0.2, and 98 μl of culture was added to a 96-well plate containing 2 μl of compound. The plates were incubated with orbital shaking at maximum speed with a Synergy Microplate Reader (Biotek), and OD600 was measured over 6 h. Experiments were performed in two to three biological replicates. For colistin in cell lysis assay, clumping of cells was observed after ≈2h, leading to a false increase in OD; therefore, data for colistin was not plotted after this period. The plate was manually mixed on a vortex, and the turbidity of colistin-treated wells was confirmed.

E coli BW25113 ΔtolC = conditions: 18–22 h
[5] = system: strains with deletions of the individual identified genes; assay: MIC in deletion strains of identified ETC/respiration genes; type: cell-based; conditions: deletions of genes related to ETC and respiration
Method: as §1

[6] = system: ribosomes (E. coli PURExpress); assay: Toeprinting assay; type: biochemical, Escherichia coli; conditions: 1, 5 or 10 μM LAR, RST1 template
Method: Toe-printing analysis was carried out in the E. coli in vitro transcription-translation system assembled from the purified components (PURExpress, NEB) as described previously. Reactions either contained no antibiotic or were supplemented with 50 μM retapamulin or varying concentrations of LAR (1, 5, or 10 μM). The model RST1 template encoding a 21-aa long peptide containing all 20 proteinogenic amino acids[22] was generated by PCR using the primers RST1_F and FIRST1_R (Supplementary Table 1).

[7] = system: E. coli cell-free transcription-translation system (gfp mRNA); assay: In vitro translation, GFP mRNA
Bacillus subtilis 168 = type: cell-based
[8] = system: Clostridium perfringens GC1584; conditions: column MHB; method: BHI + L-cysteine, hemin, vitamin K, anaerobic, 37 °C
[9] = system: E coli BW25113 ΔbamBΔtolC; conditions: 18–22 h

## CC(C)[C@H](NC(=O)CNC(=O)[C@H](CCCNC(=N)N)NC(=O)CNC(=O)[C@H](Cc1ccccc1)NC(=O)[C@H](CCCCN)NC(=O)CNC(=O)[C@@H]1CC(=O)N[C@@H](CO)C(=O)N[C@@H](CCCCN)C(=O)N[C@@H](CCCCN)C(=O)N[C@@H](CO)C(=O)N[C@@H](CCCCN)C(=O)N2CCC[C@H]2C(=O)NCC(=O)N1)C(=O)N[C@@H](CCCCN)C(=O)N[C@@H](CCCNC(=N)N)C(=O)NCC(=O)O [LAR, lariocidin] (SKKSKPGDGKFGRGVKRG-OH; lactam N-8)
[1]; 70S ribosome with mRNA and tRNAs, 250 μM antibiotic
  Ribosome binding (X-ray structure): binds to the small ribosomal subunit at a distinct site adjacent to the decoding center
[1]; Tth ribosome lacking mRNA and tRNAs (protein Y complex), 2.6 Å
  Ribosome binding without mRNA and tRNAs: the presence of A-site tRNA is not essential for LAR binding to the ribosome
[2]
  Antifungal action: no antifungal action
[2]; column MHB, method: yeast nitrogen base (YNB) without amino acids
  MIC: >256 µg/mL
E. coli ribosome
  Inhibition of ribosome translocation: inhibits ribosome translocation; also recorded: this reaction was inhibited when LAR was present
[3]
  Increase in LAR MIC by odilorhabdin-resistance mutations: 2–4 x
Bacteria (Table 1)
  MIC reduction in nutrient-limited media: ≤ 128 fold
E. coli BW25113 membrane
  Membrane permeabilization: did not permeabilize
[4]
  Effect on eukaryotic translation: only a marginal effect on eukaryotic translation
[4]; luc mRNA, 0.02–50 μM LAR, 90 min, 30°C, luminescence, mean of three experiments, read-out: IC50, protein biosynthesis
  pIC50: 4.85
[4]; ratio to E. coli system IC50
  IC50 in mammalian cell-free translation vs bacterial: ~ 58 fold
E. coli BW25113
  Viable cell count / bactericidal activity: dramatically reduced the viable cell count; also recorded: exhibits bactericidal activity
E coli BW25113 ΔtolC; MHB, 37°C
  MIC: 2 to 4 µg/mL
E coli BW25113 ΔtolC; RPMI-1640, 37°C
  MIC: 0.5 µg/mL (≈ 0.267 µM)
[5]
  Change in MIC in deletion strains: no significant changes in MIC
[6]
  Ribosome stalling (toeprint): predominantly arrested at the start codon of a model mRNA but also stalled at internal codons of the ORF
[7]; E. coli in vitro transcription-translation system, DNA or RNA
  IC50 class in words, bacterial translation: submicromolar
[7]; read-out: IC50, protein synthesis, gfp mRNA, E. coli cell-free system, real-time sfGFP fluorescence, 1 h, mean of three experiments
  pIC50: 6.62
Bacillus subtilis 168
  MIC (text): 1 µg/mL (≈ 0.534 µM)
[8]
  MIC: >256 µg/mL
[9]; MHB, 37°C
  MIC: 2 to 4 µg/mL
[9]; RPMI-1640, 37°C
  MIC: ≤0.25 µg/mL
